Data published in patent US20240218016A1, “PEPTIDES AND THEIR USE IN THE TREATMENT OF INFLAMMATION” (Shenzhen Institutes of Advanced Technology, priority 2019, published 2024).
Where no end group is shown, it is not given here. [ ]: non-standard residue; d: D form. The star is where a group is joined. Dihydrocaffeoyl = O=C(CCc1ccc(O)c(O)c1)*; Dopa = N[C@@H](Cc1ccc(O)c(O)c1)C(=O)O; Hyp = O=C(O)[C@@H]1C[C@@H](O)CN1

System: xylene-induced ear swelling
Assay: Mouse ear swelling model (xylene-induced)
Format: in vivo, BALB/c mice
Conditions: for Swelling rate: (right ear weight - left ear weight)/left ear weight x 100, about 0.1 g gel (peptide 0.5 mg/g) or Dex cream on right ear 1 hour before 20 μL xylene, ears taken 40 minutes after xylene, 5 mice per group; for anti-inflammatory effects compared with the other peptides tested: xylene mouse ear swelling, topical gels 0.5 mg/g
Experimental: 35 Health male BALB/c mice with 6-8 weeks old and average body weight of 18-25 g were supplied from Changzhou Cvens Experimental Animal Co., Ltd. and housed and cared for about 1 week prior to the experiment. The housing temperature was around 25 to 27 ° C. with 74% humidity, alternating 12-hour periods of light and darkness, and free access to food and water. The mice were randomly divided into 7 groups as described in Table 5 below, with 5 mice in each group. [table] Dexamethasone acetate cream (Dex cream; 5 mg/10 g (which means that there was 5 mg Dex contained in 10 g of the cream), Fuyuan Pharmaceutical Co. Ltd., Anhui, China) was used as positive control. The left ear of each mouse was used as an autologous control. The right ear of each mouse was treated with the above compounds in the stated concentrations. About 0.1 g of the various gels, and Dex cream were applied to the right ear of mice in each group, both inside and outside. The blank gel base was applied on the ears in the model groups. After 1 hour, 20 μL of xylene (Shanghai Aladdin Bio-Chem Technology Co., Ltd.) was applied to the same ear of each mouse. The mice were sacrificed by cervical dislocation 40 minutes after xylene application. The left and right ears were cut off. An EMS skin biopsy punch with a diameter of 8 mm was used to take a piece of the ear from the same site on both ears. The weights were recorded, and the swelling rate was calculated as a percentage according to the following formula: (right ear weight−left ear weight)/left ear weight×100

Row | Substance | Swelling rate [%] | anti-inflammatory effects compared with the other peptides tested
1 | 15 (Dihydrocaffeoyl-AKPS[Dopa][Hyp]T[Dopa][Hyp]K) [compound 15] | 63 | 
2 | 18 (Dihydrocaffeoyl-AKPS[Dopa][Hyp][Hyp]T[Dopa]K) [compound 18] | 57 | 
3 | 22 (Dihydrocaffeoyl-KPS[Dopa][Hyp]TA[Hyp]K) [compound 22] | 40 | stronger than the other peptide compounds tested
4 | 58 (KAKPS[Dopa][Hyp][Hyp]T-dopamine) [compound 58] | 43 | stronger than the other peptide compounds tested
